# Assay: Stability of JAK3 covalent inhibitors in human whole blood;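 further: parent compound remaining over incubation time quantified by LC-MS/MS as peak area ratio against an internal standard, using pooled K2-EDTA blood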
# Assay type: in vitro ADME
# Conditions: both sexes, whole blood, 37° C., read-out: Human blood stability t1/2
row,half-life at 1 μM [h],Compound
1,> 6,C=CC(=O)N1CCC(Nc2cnc3[nH]cc(C(=O)NC(C)(C)C)c3n2)C[C@@H]1C (mixture of isomers) [Example 340]
2,5.78,"C=CC(=O)N1C[C@@H](C)C[C@@H](Nc2ncnc3[nH]ccc23)C1 (racemic) [Example 22, rac-cis-1-((3R,5S)-3-((7H-Pyrrolo[2,3-d]pyrimidin-4-yl)amino)-5-methylpiperidin-1-yl)prop-2-en-1-one]"
3,> 6,"C=CC(=O)N1CC[C@H](C)[C@@H](Nc2ncnc3[nH]ccc23)C1 (racemic) [Example 50, 1-[(3R,4S)-4-methyl-3-(7H-pyrrolo[2,3-d]pyrimidin-4-ylamino)piperidin-1-yl]prop-2-en-1-one]"
4,4.45,"C=CC(=O)N1C[C@H](C)C[C@@H](Nc2ncnc3[nH]ccc23)C1 (racemic) [Example 65, Rac-1-((3R,5R)-3-((7H-Pyrrolo[2,3-d]pyrimidin-4-yl)amino)-5-methylpiperidin-1-yl)prop-2-en-1-one]"
5,> 5.56,"C=CC(=O)N1C[C@H](Nc2ncnc3[nH]ccc23)CC[C@@H]1CO (single isomer, unassigned) [Example 7]"
6,3.2,"C=CC(=O)N1CC[C@@H]2CCN(c3ncnc4[nH]ccc34)[C@@H]2C1 (single isomer, unassigned) [Example 8]"
7,> 6,"C=CC(=O)N1C[C@H](Nc2ncnc3[nH]ccc23)CC[C@@H]1CC (single isomer, unassigned) [Example 9]"
8,> 4.18,"C=CC(=O)N1C[C@@H](C)C[C@@H](Nc2ncnc3[nH]ccc23)C1 (single isomer, unassigned) [Example 14]"
9,3.2,"C=CC(=O)N1CCC[C@@H](Nc2ncnc3[nH]cc(Cl)c23)C1 [Example 3, (R)-1-(3-((5-chloro-7H-pyrrolo[2,3-d]pyrimidin-4-yl)amino)piperidin-1-yl)prop-2-en-1-one]"
10,2.33,"C=CC(=O)N1CC[C@H](F)[C@@H](Nc2ncnc3[nH]ccc23)C1 [Example 4, 1-((3S,4S)-3-((7H-pyrrolo[2,3-d]pyrimidin-4-yl)amino)-4-fluoropiperidin-1-yl)prop-2-en-1-one]"
11,4.22,"C=CC(=O)N1C[C@H](C#N)C[C@@H](Nc2ncnc3[nH]ccc23)C1 [Example 6, (3R,5R)-5-((7H-pyrrolo[2,3-d]pyrimidin-4-yl)amino)-1-acryloylpiperidine-3-carbonitrile]"
12,2.72,"C=CC(=O)N1C[C@H](F)C[C@@H](Nc2ncnc3[nH]ccc23)C1 [Example 10, 1-((3R,5R)-3-((7H-pyrrolo[2,3-d]pyrimidin-4-yl)amino)-5-fluoropiperidin-1-yl)prop-2-en-1-one]"
13,> 4.93,"C=CC(=O)N1CC[C@H](C)[C@@H](Nc2ncnc3[nH]ccc23)C1 [Example 11, 1-((3R,4S)-3-((7H-pyrrolo[2,3-d]pyrimidin-4-yl)amino)-4-methylpiperidin-1-yl)prop-2-en-1-one]"
14,> 5.53,"C=CC(=O)N1CCC[C@@H](Nc2ncnc3[nH]ccc23)C1 [Example 12, (R)-1-(3-((7H-Pyrrolo[2,3-d]pyrimidin-4-yl)amino)piperidin-1-yl)prop-2-en-1-one]"
15,5.08,C=CC(=O)N1C[C@H](Nc2ncnc3[nH]cc(CCOC)c23)CC[C@@H]1C [Example 13]
16,3.87,"C=CC(=O)N1C[C@@H](F)C[C@@H](Nc2ncnc3[nH]ccc23)C1 [Example 15, 1-((3R,5S)-3-((7H-Pyrrolo[2,3-d]pyrimidin-4-yl)amino)-5-fluoropiperidin-1-yl)prop-2-en-1-one]"
17,> 5.17,"C=CC(=O)N1C[C@@H](O)C[C@@H](Nc2ncnc3[nH]ccc23)C1 [Example 17, 1-((3R,5S)-3-(7H-Pyrrolo[2,3-d]pyrimidin-4-ylamino)-5-hydroxypiperidin-1-yl)prop-2-en-1-one]"
18,> 5.31,"C=CC(=O)N1C[C@H](Nc2ncnc3[nH]cc(Cl)c23)CC[C@@H]1C [Example 18, 1-((2S,5R)-5-((5-Chloro-7H-pyrrolo[2,3-d]pyrimidin-4-yl)amino)-2-methylpiperidin-1-yl)prop-2-en-1-one]"
19,3.51,"C=CC(=O)N1C[C@H](Nc2ncnc3[nH]ccc23)C[C@H](OC)C1 [Example 19, 1-((3R,5S)-3-((7H-Pyrrolo[2,3-d]pyrimidin-4-yl)amino)-5-methoxypiperidin-1-yl)prop-2-en-1-one]"
20,> 6,"C=CC(=O)N1CCC[C@@H](Nc2ncnc3[nH]cc(-c4cncc(F)c4)c23)C1 [Example 23, 1-[(3R)-3-{[5-(5-fluoropyridin-3-yl)-7H-pyrrolo[2,3-d]pyrimidin-4-yl]amino}piperidin-1-yl]prop-2-en-1-one]"
21,> 6,"C=CC(=O)N1CCC[C@@H](Nc2ncnc3[nH]cc(-c4cncc(OC)c4)c23)C1 [Example 24, 1-[(3R)-3-{[5-(5-methoxypyridin-3-yl)-7H-pyrrolo[2,3-d]pyrimidin-4-yl]amino}piperidin-1-yl]prop-2-en-1-one]"
22,> 6,"C=CC(=O)N1CCC[C@@H](Nc2ncnc3[nH]cc(-c4cccnc4)c23)C1 [Example 26, 1-[(3R)-3-{[5-(pyridin-3-yl)-7H-pyrrolo[2,3-d]pyrimidin-4-yl]amino}piperidin-1-yl]prop-2-en-1-one]"
23,0.767,"C=CC(=O)N1CCC[C@@H](Nc2ncnc3[nH]cc(-c4ccc(C(=O)N(C)C)cc4)c23)C1 [Example 27, 4-(4-{[(3R)-1-acryloylpiperidin-3-yl]amino}-7H-pyrrolo[2,3-d]pyrimidin-5-yl)-N,N-dimethylbenzamide]"
24,> 6,"C=CC(=O)N1CCC[C@@H](Nc2ncnc3[nH]cc(-c4cnn(C)c4)c23)C1 [Example 28, 1-[(3R)-3-{[5-(1-methyl-1H-pyrazol-4-yl)-7H-pyrrolo[2,3-d]pyrimidin-4-yl]amino}piperidin-1-yl]prop-2-en-1-one]"
25,> 6,"C=CC(=O)N1CCC[C@@H](Nc2ncnc3[nH]cc(-c4ccc(OCC)nc4)c23)C1 [Example 33, 1-[(3R)-3-{[5-(6-ethoxypyridin-3-yl)-7H-pyrrolo[2,3-d]pyrimidin-4-yl]amino}piperidin-1-yl]prop-2-en-1-one]"
26,> 6,"C=CC(=O)N1CCC[C@@H](Nc2ncnc3[nH]cc(-c4ccc5c(cnn5C)c4)c23)C1 [Example 34, 1-[(3R)-3-{[5-(1-methyl-1H-indazol-5-yl)-7H-pyrrolo[2,3-d]pyrimidin-4-yl]amino}piperidin-1-yl]prop-2-en-1-one]"
27,> 6,"C=CC(=O)N1CCC[C@@H](Nc2ncnc3[nH]cc(-c4ccc(N5CCOCC5)nc4)c23)C1 [Example 36, 1-[(3R)-3-({5-[6-(morpholin-4-yl)pyridin-3-yl]-7H-pyrrolo[2,3-d]pyrimidin-4-yl}amino)piperidin-1-yl]prop-2-en-1-one]"
28,0.0467,"C=C(C(=O)N1CC[C@@H]2CCN(c3ncnc4[nH]ccc34)[C@@H]2C1)C(F)(F)F [Example 41, 1-((3aS,7aS)-1-(7H-Pyrrolo[2,3-d]pyrimidin-4-yl)hexahydro-1H-pyrrolo[2,3-c]pyridin-6(2H)-yl)-2-(trifluoromethyl)prop-2-en-1-one]"
29,> 6,"C=CC(=O)N1CCC[C@@H](Nc2ncnc3[nH]cc(F)c23)C1 [Example 42, 1-{(3R)-3-[(5-fluoro-7H-pyrrolo[2,3-d]pyrimidin-4-yl)amino]piperidin-1-yl}prop-2-en-1-one]"

# — US9617258B2, “Pyrrolo[2,3-d]pyrimidinyl, pyrrolo[2,3-b]pyrazinyl and pyrrolo[2,3-d]pyridinyl acrylamides” (Pfizer Inc., priority 2013, dated 2017)
